Test [1] relates to Platelet. Description: Inhibition of SFLLRN-induced human platelet aggregation. Type of test: functional, cell-based.
The test system of test [2] is Platelet. Description: Inhibition of thrombin-induced human platelet aggregation. Type of test: functional, cell-based.
Test [3] has as its system Platelet. The experiment in a line: Inhibition of U46619-induced human platelet aggregation. Type of test: functional, cell-based.
For test [4], the system named is Platelet. Description: Inhibition of GYPGKF-induced human platelet aggregation. Type of test: functional, cell-based.
Test [5] concerns Platelet. The experiment in a line: Inhibition of collagen-induced human platelet aggregation. Type of test: functional, cell-based.
Test [6] addresses T1, Proteinase-activated receptor 4 (Homo sapiens) (UniProt Q96RI0).
T1 sequence (whole entry): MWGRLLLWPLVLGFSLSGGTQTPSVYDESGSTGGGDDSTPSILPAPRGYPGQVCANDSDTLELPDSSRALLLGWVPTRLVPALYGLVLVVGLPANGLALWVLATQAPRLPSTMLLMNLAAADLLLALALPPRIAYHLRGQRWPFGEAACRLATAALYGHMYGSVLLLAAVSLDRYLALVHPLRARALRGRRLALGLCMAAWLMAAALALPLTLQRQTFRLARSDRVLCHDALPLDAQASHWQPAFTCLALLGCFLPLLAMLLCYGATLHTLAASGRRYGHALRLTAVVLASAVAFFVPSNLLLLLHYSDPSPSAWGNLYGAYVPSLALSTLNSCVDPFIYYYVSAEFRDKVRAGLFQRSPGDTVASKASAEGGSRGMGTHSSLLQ
The experiment in a line: Inhibition of PAR4-mediated GYPGKF-induced ATP release in human platelet assessed per 3*10^8 platelets at 0.1 uM.

For test [7], the target named is T1, Proteinase-activated receptor 4 (Homo sapiens). Description: Inhibition of PAR4-mediated GYPGKF-induced P-selectin expression in human platelet at 0.1 uM.
The target is the same in test [8]. The experiment in a line: Inhibition of PAR4-mediated GYPGKF-induced P-selectin expression in human platelet at 0.05 uM.
For test [9] the target is unchanged. The experiment in a line: Inhibition of PAR4-mediated GYPGKF-induced ATP release in human platelet assessed per 3*10^8 platelets at 0.2 uM.
Test [10] deals with Platelet. Description: Inhibition of arachidonic acid-stimulated thromboxane B2 formation in human platelet assessed per 3*10^8 platelets at 5 uM. Type of test: functional.

SMILES strings stand for the structures.

Turning to `CNC(=O)c1ccc(-c2nn(Cc3ccccc3)c3ccccc23)cc1`, the IC50 in [1], in test [2], in test [3], in test [4] and in test [5] was above 10 µM throughout.

As for `CCOC(=O)c1ccc(-c2nn(Cc3ccc(Cl)cc3)c3ccccc23)cc1`, the IC50 in test [1] was above 10 µM; in [2], above 10 µM; in test [3], above 10 µM; in [4], 0.12 µM; in [5] it was above 10 µM.

In the case of `CCOC(=O)c1ccc(-c2nn(C)c3ccccc23)cc1`, the IC50 in test [1] is above 10 µM; in [2] it was above 10 µM; in test [3] it was above 10 µM; in [4] it was 0.27 µM; in test [5] it was above 10 µM.

Take `CCOC(=O)c1ccc(-c2nn(Cc3ccccc3F)c3ccccc23)cc1`: the IC50 is above 10 µM in [1]; above 10 µM in test [2]; above 10 µM in test [3]; 0.11 µM in test [4]; above 10 µM in [5].

Take `CCOC(=O)c1ccc(-c2nn(Cc3cccc(Cl)c3)c3ccccc23)cc1`: the Activity in test [6] was 58.9 ng; in test [9], 8.9 ng; in test [10], 1368.4 ng. The IC50 in test [1] is above 10 µM; in test [2], above 10 µM; in test [3], above 10 µM; in test [4] it was 0.08 µM; in test [5], above 10 µM. Besides, the inhibition in [7] is 5.2%; in test [8] it was 39.3%.

With `CCOC(=O)c1cccc(-c2nn(Cc3ccccc3)c3ccccc23)c1`, the IC50 in test [1], in test [2], in test [3], in [4] and in test [5] was above 10 µM throughout.

With `CCOC(=O)c1ccc(-c2nn(Cc3ccco3)c3ccccc23)cc1`, the half-inhibitory concentration (IC50) in [1] is above 10 µM; in test [2], above 10 µM; in test [3], above 10 µM; in test [4] it was 0.34 µM; in test [5] it was above 10 µM.

For `CC(C)OC(=O)c1ccc(-c2nn(Cc3ccccc3)c3ccccc23)cc1`, the half-maximal inhibitory concentration (IC50) in test [1], in test [2], in test [3], in test [4] and in test [5] was above 10 µM each time.

On to `CCCn1nc(-c2ccc(C(=O)OCC)cc2)c2ccccc21`, for which the IC50 in test [1] is above 10 µM; in test [2], above 10 µM; in test [3] it was above 10 µM; in [4] it was 0.49 µM; in test [5] it was above 10 µM.

In the case of `CCOC(=O)c1ccc(-c2nn(CC)c3ccccc23)cc1`, the IC50 in test [1] is above 10 µM; in test [2], above 10 µM; in test [3], above 10 µM; in test [4] it was 0.36 µM; in test [5], above 10 µM.

As to `CCOC(=O)/C=C/c1ccc(-c2nn(Cc3ccccc3)c3ccccc23)cc1`, the IC50 in [1], in test [2], in test [3], in test [4] and in test [5] was above 10 µM throughout.

Consider `CCOC(=O)c1ccc(-c2nn(Cc3ccncc3)c3ccccc23)cc1`, for which the IC50 is above 10 µM in test [1]; above 10 µM in test [2]; above 10 µM in test [3]; 5.63 µM in test [4]; above 10 µM in test [5].

For `NC(=O)c1ccc(-c2nn(Cc3ccccc3)c3ccccc23)cc1`, the IC50 in test [1], in test [2], in test [3], in [4] and in test [5] was above 10 µM each time.

`CCNC(=O)c1ccc(-c2nn(Cc3ccccc3)c3ccccc23)cc1`: the IC50 in test [1] was above 10 µM; in test [2] it was above 10 µM; in [3], above 10 µM; in test [4], 5.64 µM; in test [5], above 10 µM.

As to `CCOC(=O)c1ccc(-c2nn(Cc3cccnc3)c3ccccc23)cc1`, the IC50 was above 10 µM in test [1]; above 10 µM in [2]; above 10 µM in test [3]; 5.55 µM in test [4]; above 10 µM in [5].

As for `CCOC(=O)c1ccc(-c2nn(Cc3cccc(OC)c3)c3ccccc23)cc1`, the IC50 in test [1] is above 10 µM; in [2] it was above 10 µM; in test [3], above 10 µM; in [4] it was 0.26 µM; in [5], above 10 µM.

Consider `CCOC(=O)c1ccc(-c2nn(Cc3ccc(OC)cc3)c3ccccc23)cc1`, for which the IC50 is above 10 µM in test [1]; above 10 µM in [2]; above 10 µM in test [3]; 0.62 µM in test [4]; above 10 µM in [5].

Turning to `CC(C)NC(=O)c1ccc(-c2nn(Cc3ccccc3)c3ccccc23)cc1`, the IC50 in test [1], in test [2], in test [3], in [4] and in test [5] was above 10 µM throughout.

Consider `O=C(O)c1ccc(-c2nn(Cc3ccccc3)c3ccccc23)cc1`, for which the IC50 in [1], in [2], in [3], in test [4] and in test [5] was above 10 µM throughout.

On to `CCOC(=O)c1ccc(-c2nn(Cc3cccc(F)c3)c3ccccc23)cc1`, for which the IC50 is above 10 µM in test [1]; above 10 µM in [2]; above 10 µM in test [3]; 0.27 µM in test [4]; above 10 µM in test [5].

For `COC(=O)c1ccc(-c2nn(Cc3ccccc3)c3ccccc23)cc1`, the IC50 in test [1] is above 10 µM; in test [2] it was above 10 µM; in test [3], above 10 µM; in test [4], 0.56 µM; in test [5] it was above 10 µM.

For the compound `CCOC(=O)c1ccc(-c2nn(Cc3ccoc3)c3ccccc23)cc1`, the IC50 in [1] was above 10 µM; in test [2], above 10 µM; in test [3], above 10 µM; in test [4], 0.58 µM; in test [5], above 10 µM.

Consider `CCOC(=O)c1ccc(-c2c3ccccc3nn2Cc2ccccc2)cc1`, for which the IC50 in [1], in test [2], in test [3], in [4] and in test [5] was above 10 µM throughout.

With `CCOC(=O)c1ccc(-c2nn(Cc3ccccc3OC)c3ccccc23)cc1`, the IC50 in test [1] is above 10 µM; in test [2], above 10 µM; in [3], above 10 µM; in test [4], 0.47 µM; in test [5] it was above 10 µM.

Consider `CCCCn1nc(-c2ccc(C(=O)OCC)cc2)c2ccccc21`, for which the IC50 in test [1] is above 10 µM; in test [2], above 10 µM; in [3], above 10 µM; in test [4], 0.67 µM; in [5] it was above 10 µM.

On to `CCOC(=O)c1ccc(-c2nn(Cc3ccccc3)c3ccccc23)cc1`, for which the Activity in [6] was 74.4 ng; in test [9], 12.7 ng; in test [10] it was 1408.3 ng. Also, the IC50 in test [1] is above 10 µM; in [2], above 10 µM; in [3], above 10 µM; in [4] it was 0.13 µM; in test [5], above 10 µM. For the same compound, the figures for the inhibition in [7] and in test [8] were 7.7% and 67.2%, respectively.

As for `CCOC(=O)c1ccc(-c2nn(C(C)C)c3ccccc23)cc1`, the IC50 in test [1] is above 10 µM; in [2], above 10 µM; in test [3], above 10 µM; in test [4], 0.65 µM; in test [5], above 10 µM.

On to `CCCOC(=O)c1ccc(-c2nn(Cc3ccccc3)c3ccccc23)cc1`, for which the IC50 in [1], in test [2], in test [3], in test [4] and in [5] was above 10 µM each time.

Take `CCOC(=O)c1ccc(-c2nn(Cc3ccccc3Cl)c3ccccc23)cc1`: the IC50 in test [1] was above 10 µM; in test [2], above 10 µM; in [3], above 10 µM; in [4], 0.23 µM; in [5], above 10 µM.

Consider `CO/N=C\c1ccc(-c2nn(Cc3ccccc3)c3ccccc23)cc1`, for which the IC50 in test [1], in test [2], in [3], in test [4] and in test [5] was above 10 µM in each case.

In the case of `CCCNC(=O)c1ccc(-c2nn(Cc3ccccc3)c3ccccc23)cc1`, the IC50 is above 10 µM in test [1]; above 10 µM in [2]; above 10 µM in test [3]; above 10 µM in [4]; 9.56 µM in [5].

Take `CCOC(=O)c1ccc(-c2nn(Cc3ccc(F)cc3)c3ccccc23)cc1`: the IC50 in test [1] is above 10 µM; in [2], above 10 µM; in test [3], above 10 µM; in test [4] it was 0.19 µM; in test [5], above 10 µM.

`OCc1ccc(-c2nn(Cc3ccccc3)c3ccccc23)cc1`: the IC50 in [1], in test [2], in [3], in test [4] and in test [5] was above 10 µM each time.

The record behind these values is ChEMBL document CHEMBL1143961, “Synthesis and antiplatelet activity of ethyl 4-(1-benzyl-1H-indazol-3-yl)benzoate (YD-3) derivatives” (Bioorg Med Chem, 2008).
